Assay results as given in the supplement of paper PMC10307832.

What was measured:
Experiment in all cases: relative viability (nuclei count vs DMSO), 5 days (fraction); higher = more cells survive
[1] = compound: CC1(COc2ccc3c(c2)ncn3-c2ccc3cccc(N4CCC(N)CC4)c3n2)COC1 [Crenolanib] + Cc1nc(NC(=O)N2CCC[C@H]2C(N)=O)sc1-c1ccnc(C(C)(C)C(F)(F)F)c1 [Alpelisib] (partner 2 µM)
In short: (§1)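 Relative viability equals treated-well nuclei counts divided by vehicle-well nuclei counts. Counts came from 4× images of lung cancer cell lines grown in 1536-well plates for 5 days after pin-tool dosing on the day after seeding. Dosing used one drug alone or a fixed anchor-drug dose plus five library-drug doses (not always all listed) in √10 steps, and values are medians of duplicate plates.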

[2] = compound: CC1(COc2ccc3c(c2)ncn3-c2ccc3cccc(N4CCC(N)CC4)c3n2)COC1 [Crenolanib] + Cc1nc(Nc2ncc(C(=O)Nc3c(C)cccc3Cl)s2)cc(N2CCN(CCO)CC2)n1 [Dasatinib] (partner 0.075 µM)
In short: as §1

[3] = compound: O=C1NC(=O)[C@@H](c2cn3c4c(cccc24)CCC3)[C@@H]1c1c[nH]c2ccccc12 [Tivantinib] + COc1cc2c(Oc3ccc(NC(=O)C4(C(=O)Nc5ccc(F)cc5)CC4)cc3F)ccnc2cc1OCCCN1CCOCC1 [Foretinib] (partner 0.25 µM)
In short: as §1

[4] = compound: O=C1NC(=O)[C@@H](c2cn3c4c(cccc24)CCC3)[C@@H]1c1c[nH]c2ccccc12 [Tivantinib] + N=C(N)NC(=N)NCCc1ccccc1 [Phenformin] (partner 250 µM)
In short: as §1

Cell Line	relative viability ([1]; first compound 0.01 µM)	relative viability ([1]; first compound 0.03162 µM)	relative viability ([1]; first compound 0.1 µM)	relative viability ([1]; first compound 0.3162 µM)	relative viability ([1]; first compound 1 µM)	relative viability ([2]; first compound 0.01 µM)	relative viability ([2]; first compound 0.03162 µM)	relative viability ([2]; first compound 0.1 µM)	relative viability ([2]; first compound 0.3162 µM)	relative viability ([2]; first compound 1 µM)	relative viability ([3]; first compound 0.01 µM)	relative viability ([3]; first compound 0.03162 µM)	relative viability ([3]; first compound 0.1 µM)	relative viability ([3]; first compound 0.3162 µM)	relative viability ([4]; first compound 0.01 µM)	relative viability ([4]; first compound 0.03162 µM)	relative viability ([4]; first compound 0.1 µM)	relative viability ([4]; first compound 0.3162 µM)
NCI-H460	0.571	0.54	0.41	0.709	0.265	0.506	0.461	0.531	0.565	0.522	0.935	1.06	0.94	0.97	0.532	0.509	0.474	0.563
NCI-H520	0.868	0.878	0.863	0.99	0.848	0.244	0.194	0.197	0.244	0.309	0.869	0.792	0.655	0.708	0.669	0.393	0.536	0.547
NCI-H596	0.435	0.531	0.494	0.478	0.536	0.716	0.655	0.627	0.675	0.538	0.855	0.835	1.1	0.895	0.665	0.651	0.715	0.771
NCI-H647	1.16	1.28	1.04	1.21	1.11	0.175	0.209	0.196	0.189	0.201	1.25	1.18	1.12	1.21	0.583	0.476	0.437	0.619
NCI-H650	1.14	1.13	0.972	1.06	1.07	0.493	0.472	0.425	0.404	0.356	1.03	0.987	0.989	0.822	0.47	0.387	0.448	0.479
NCI-H661	0.894	0.609	0.479	0.597	0.542	0.958	0.845	0.864	0.992	1.09	1.01	1.04	0.968	0.686	0.288	0.281	0.404	0.271
NCI-H727	0.609	0.671	0.563	0.665	0.627	0.348	0.364	0.338	0.347	0.49	0.829	0.857	0.629	0.732	0.636	0.409	0.393	0.584
NCI-H838	1.02	0.991	0.968	1.22	0.846	0.262	0.294	0.273	0.28	0.219	1	1.07	0.992	1.07	0.705	0.554	0.464	0.514
NCI-H1355	0.845	0.803	0.911	1.02	0.748	0.733	0.704	0.681	0.718	0.488	1.08	1.03	0.995	0.915	0.474	0.475	0.439	0.436
NCI-H1395	1.1	1.14	1.1	0.914	0.938	0.406	0.387	0.39	0.37	0.403	1.11	1.03	0.966	0.828	0.468	0.513	0.45	0.437
NCI-H1437	0.999	1.07	0.944	1.18	0.949	0.403	0.369	0.361	0.377	0.42	1.26	1.34	1.3	1.25	0.3	0.278	0.275	0.351
NCI-H1563	0.99	0.924	1.1	1.07	0.905	0.452	0.41	0.472	0.464	0.452	0.98	0.892	0.819	0.783	0.581	0.636	0.631	0.63
NCI-H1651	0.89	0.903	0.893	0.982	0.867	0.504	0.377	0.373	0.531	0.336	0.931	0.813	0.769	0.691	0.348	0.287	0.318	0.376
NCI-H1666	0.932	0.969	1.04	1.08	1.02	0.791	0.854	0.745	0.819	0.745	0.936	1.01	0.979	0.827	0.566	0.576	0.531	0.552
NCI-H1734	0.707	0.664	0.653	0.855	0.737	0.502	0.427	0.468	0.465	0.453	0.952	0.937	0.743	0.598	0.401	0.346	0.386	0.451
NCI-H1755	0.958	0.953	0.915	1.05	0.898	0.465	0.472	0.395	0.437	0.384	0.971	0.863	0.871	1.03	0.591	0.591	0.589	0.666
NCI-H1793	0.684	0.964	0.712	0.76	0.717	0.365	0.412	0.4	0.404	0.418	0.698	0.616	0.762	0.548	0.347	0.388	0.371	0.213
NCI-H1915	1.04	1.07	1.04	1.07	0.874	0.306	0.271	0.304	0.294	0.223	1.11	1.06	1.08	1.07	0.362	0.354	0.367	0.378
NCI-H1944	0.881	0.892	0.742	0.927	0.819	0.255	0.234	0.213	0.211	0.168	0.795	0.874	0.851	0.63	0.189	0.179	0.192	0.228
NCI-H1975	0.602	0.663	0.605	0.642	0.61	0.412	0.348	0.352	0.395	0.408	0.904	0.974	0.905	0.996	0.398	0.421	0.403	0.357
NCI-H1993	0.682	0.629	0.688	0.737	0.709	0.621	0.63	0.588	0.623	0.429	0.808	0.762	0.766	0.545	0.446	0.503	0.514	0.605
NCI-H2009	1.12	1.19	1.06	1.18	1.07	0.323	0.297	0.257	0.294	0.227	1.23	1.22	1.21	1.27	0.492	0.503	0.481	0.528
NCI-H2023	0.627	0.655	0.594	0.725	0.635	0.656	0.603	0.669	0.743	0.567	0.787	0.841	0.816	0.516	0.484	0.41	0.422	0.444
NCI-H2085	1.11	0.918	0.948	1.06	1.05	0.27	0.26	0.263	0.216	0.315	0.921	1.13	0.916	0.666	0.774	0.639	0.699	0.519
NCI-H2087	0.86	1.11	0.942	1.02	1.17	0.809	1.03	0.694	1.07	0.818	1.1	1.16	0.914	1.13	0.446	0.456	0.473	0.472
NCI-H2126	0.8	0.752	0.761	0.787	0.715	0.595	0.635	0.604	0.74	0.616	1.16	1.12	1.04	0.829	0.527	0.504	0.532	0.47
NCI-H2170	0.856	0.815	0.814	0.951	0.912	0.697	0.569	0.591	0.598	0.641	0.975	0.929	1.02	–	0.429	0.437	0.401	–
NCI-H2228	0.842	0.863	0.712	0.867	0.748	0.488	0.555	0.519	0.46	0.518	–	0.841	0.678	0.714	–	0.296	0.283	0.223
NCI-H2347	1.1	1.04	0.642	1.09	1.14	0.31	–	–	0.278	0.295	0.94	1.12	0.712	1.05	0.514	0.375	0.389	0.377
